Results published in patent US9572786B2, “Use of capsiate or dihydrocapsidate” (Catholic University Industry Academy Cooperation Foundation, priority 2007, dated 2017).

How the values were obtained:
hairless mouse = assay: Change of mouse skin tissue after UV, hematoxylin-eosin staining; assay type: in vivo; conditions: 4 times of UV irradiation every other day at 2.5 kJ/m^2
Experimental: When the skin is exposed to UV, erythema, or […] of the skin, occurs accompanied by edema, prior to a variety of cellular changes including inflammation, apoptosis, carcinogenesis, or the like [Tadashi Terui, Hachiro Tagami, Mediators of inflammation involved in UVB erythema, Journal of Dermatological Science 23 Suppl. 1 (2000) S1S5]. In order to investigate the effect of capsiate on erythema accompanied by UV-induced inflammatory response, experiment was carried out as follows using hairless mouse. Test groups were as follows: non-treated group—treated with acetone only without UV irradiation; test group A—treated with 200 μL of 1 mM capsiate dissolved in acetone without UV irradiation; UV group—treated with acetone and UV; test group B—treated with UV and 200 μL of 1 mM capsiate dissolved in acetone every 24 hours.
After 4 times of UV irradiation every other day at an intensity of 2.5 kJ/m^2, hematoxylin-eosin staining was carried out in order to observe the change of mouse skin tissue.

Sprague dawley (SD) rats = assay: Retinal vascular permeability in streptozotocin induced diabetic retinopathy; assay type: in vivo, rat; conditions: intravitreally injected 1-week after streptozotocin, observed at 3 weeks with dextran FITC
Experimental: Diabetes are induced by performing intraperitoneal injection of 60 mg/kg of streptozotocin (Sigma, St Louis, Mo., USA) into 8-week-old male Sprague dawley (SD) rats (250 g). 3 days later, serum glucose level was measured and rats having serum glucose level of […] and more are selected and used in experiments. Capsiate or capsaicin was intravitreally injected 1-week after the injection of streptozotocin, respectively. 3 weeks after the injection of streptozotocin, 0.5 ml of dextran FITC (25 mg/ml, MW 40K, Sigma, St Louis, Mo., USA) was injected through tail vein of tested rats to imaging retinal vascular pattern. Retinal tissues of the rats are isolated and observed by fluorescent microscopy (Olympus, Tokyo, Japan). The increase of retinal vascular permeability is observed in nonproliferative diabetic retinopathy, proliferative diabetic retinopathy and diabetic macular edema and result from cracks in vascular vessel due to breakdown of blood-retinal barrier (BRB).

P38 = assay: MAPK signaling in mouse skin tissue, Western blotting: P38; assay type: in vivo; conditions: hairless mouse; UV+CPT vs UV with acetone only
Experimental: (§1) In order to investigate the intracellular mechanism (signaling) related with the inhibition of COX-2 expression by capsiate, Western blotting was carried out for MAPK signaling-related proteins (ERK, p-ERK, p38, p-p38 and JNK, p-JNK) as in Example 2-2, using proteins isolated from the mouse skin tissue.

VEGF = assay: UV-induced VEGF expression, immunohistochemical staining; assay type: cell-based, human; conditions: HaCaT cells; 25 μM; UV 100 J/m^2; 24 hours
Experimental: First, the inhibition effect of capsiate on the expression of VEGF, the typical intracellular angiogenesis factor, was evaluated by immunohistochemical staining in order to investigate the inhibition effect of capsiate on angiogenesis.
HaCaT cells were placed on a 14 mm culture slide and cultured for 24 hours in DMEM containing 10% FBS. Subsequently, the cells were cultured for 24 hours in DMEM containing 1% FBS until starvation. Then, after treating with 25 μM capsiate for 30 minutes, followed by washing 3 times with PBS, UV was irradiated at an intensity of 100 J/m^2. Immediately after the UV irradiation, the cells were washed again with PBS and further cultured for 24 hours in DMEM containing 1% FBS, which was treated with capsiate at the same concentration as in the pre-treatment. The cells were fixed for 5 minutes using methanol and immunohistochemical staining was carried out in the same manner as in Example 2-3. For VEGF detection, rabbit anti-VEGF IgG antibody (Santa Cruz, USA) and Alexa 488-labeled anti-rabbit-IgG secondary antibody (Invitrogen, USA) were used.

MMP-9 = assay: Zymography of secreted MMP-9 after UV; assay type: cell-based, human; conditions: HaCaT culture medium; 10, 25, 50 μM; UV 100 J/m^2; 36 hours
Experimental: Zymography was carried out in order to investigate the decrease of expression and activity of MMP-2 and MMP-9 in protein level.
5×10^5 HaCaT cells were placed on a 60 mm Petri dish and cultured for 24 hours in DMEM containing 10% FBS. Subsequently, the cells were cultured for 24 hours in DMEM containing 1% FBS until starvation. Then, after treating with capsiate at different concentrations (10 μM, 25 μM, 50 μM) for 30 minutes, followed by washing 3 times with PBS, UV was irradiated at an intensity of 100 J/m^2. Immediately after the UV irradiation, the cells were washed again with PBS and further cultured for 36 hours in DMEM containing 1% FBS, which was treated with capsiate at the same concentration as in the pre-treatment. After collecting the culture medium, the activity of MMP-2 and MMP-9 proteins secreted from the cells into the medium was measured. To this end, the mediums obtained from the same number of cells were concentrated to the same volume, and the temperature was maintained at 4° C. in order to avoid the effect on the protein activity.
Thus prepared sample was subjected to electrophoresis at 4° C. using 7.5% acrylamide gel containing gelatin but without sodium dodecyl sulfate (SDS). […]

IL-2 = assay: Secretion of IL-2 by T cells, ELISA; assay type: cell-based, C57/BL6 mouse; conditions: mouse spleen T cells of Example 14-1; vs control group
Source text: In order to investigate the effect of capsiate on activation of T cells, the production of IL-2 by the T cells the proliferation of which was induced in Example 14-1 was compared with the non-capsiate-treated control group. IL-2 is a T cell proliferation factor secreted from stimulated T cells and acts as a cytokine affecting the proliferation of T helper cells, cytotoxic T (TC) cells and natural killer (NK) cells, activation of T cells, proliferation of B cells, and production of antibody.
Specifically, the degree of IL-2 production was measured by ELISA. IL-2 recognition antibody was attached on a 96-well plate. Next day, after suppressing non-specific recognition using blocking buffer (PBS containing 5% BSA), cultured T cells were added to the plate and incubated at room temperature for 4 hours. Subsequently, after incubating using biotinylated IL-2 secondary antibody (Becton Dikinson, USA), absorbance (540 nm) was measured using an ELISA reader using biotin-recognizing enzyme antibody (streptavidine-conjugated HRP, Becton Dikinson, USA), while varying the substrate.

JNK = assay: MAPK signaling in mouse skin tissue, Western blotting: JNK; assay type: in vivo; conditions: hairless mouse; UV+CPT vs UV with acetone only
Experimental: as §1

ERK = assay: MAPK signaling in mouse skin tissue, Western blotting: ERK; assay type: in vivo; conditions: hairless mouse; UV+CPT vs UV with acetone only
Experimental: as §1

COc1cc(COC(=O)CCCC/C=C/C(C)C)ccc1O [capsiate]
thickness of the epidermis (hematoxylin-eosin staining) (hairless mouse): less thick
increment of retinal vascular permeability (Sprague dawley (SD) rats): inhibited
P38 (phosphorylation) in mouse skin tissue (P38): no significant difference
UV-induced VEGF expression in the cytoplasm (VEGF): decreased
expression and activity of MMP-9 (zymography) (MMP-9): inhibited expression and activity
IL-2 production by T cells (IL-2): significantly decreased
JNK (phosphorylation) in mouse skin tissue (JNK): no significant difference
ERK phosphorylation in mouse skin tissue (ERK): suppressed phosphorylation
